Results taken from paper PMC6733504, “Effects of flavoring compounds used in electronic cigarette refill liquids on endothelial and vascular function” (PLoS ONE, 2019).
Read-outs that look alike come from different tables or passages of the source.

Legend:
[1] = tested on: Porcine aortic endothelial cells (endothelial sGC); test: DEA/NO-induced endothelial cGMP formation; type: cell-based; conditions: for DEA/NO-stimulated endothelial cGMP formation: 1 mM
Method: Porcine aortic endothelial cells were isolated as described and cultured at 37°C, 5% CO2 for up to 3 passages in Dulbecco´s modified Eagle´s medium, containing 10% heat-inactivated fetal calf serum (FCS), 100 U/ml penicillin, 0.1 mg/ml streptomycin, and 1.25 μg/ml amphotericin B. Prior to experiments, cells were subcultured into 24-well plates (determination of cGMP formation) or 6-well plates (determination of L-citrulline formation).
Accumulation of intracellular 3',5'-cyclic GMP (cGMP) was determined as previously described. […] Reactions were started by addition of the Ca^2+ ionophore A 23187 (final concentration 1 μM) or the NO donor DEA/NO (final concentration 1 μM) and terminated after 4 minutes by removal of the incubation medium and addition of 0.01 M HCl. Within 1 h, intracellular cGMP was completely released into the supernatant and measured by radioimmunoassay.

[2] = target: T1, NO synthase (NOS) (Sus scrofa, UniProt Q28969); test: Endothelial L-citrulline formation (NOS activity in intact cells); type: cell-based, porcine; conditions: for Direct effect on NOS-catalyzed L-citrulline formation: 1 mM, absence of A23187 (S1 Fig)
T1 construct: endogenous in cells; host or cells: primary porcine aortic endothelial cells (up to 3 passages)
T1 sequence (Q28969 1-1205): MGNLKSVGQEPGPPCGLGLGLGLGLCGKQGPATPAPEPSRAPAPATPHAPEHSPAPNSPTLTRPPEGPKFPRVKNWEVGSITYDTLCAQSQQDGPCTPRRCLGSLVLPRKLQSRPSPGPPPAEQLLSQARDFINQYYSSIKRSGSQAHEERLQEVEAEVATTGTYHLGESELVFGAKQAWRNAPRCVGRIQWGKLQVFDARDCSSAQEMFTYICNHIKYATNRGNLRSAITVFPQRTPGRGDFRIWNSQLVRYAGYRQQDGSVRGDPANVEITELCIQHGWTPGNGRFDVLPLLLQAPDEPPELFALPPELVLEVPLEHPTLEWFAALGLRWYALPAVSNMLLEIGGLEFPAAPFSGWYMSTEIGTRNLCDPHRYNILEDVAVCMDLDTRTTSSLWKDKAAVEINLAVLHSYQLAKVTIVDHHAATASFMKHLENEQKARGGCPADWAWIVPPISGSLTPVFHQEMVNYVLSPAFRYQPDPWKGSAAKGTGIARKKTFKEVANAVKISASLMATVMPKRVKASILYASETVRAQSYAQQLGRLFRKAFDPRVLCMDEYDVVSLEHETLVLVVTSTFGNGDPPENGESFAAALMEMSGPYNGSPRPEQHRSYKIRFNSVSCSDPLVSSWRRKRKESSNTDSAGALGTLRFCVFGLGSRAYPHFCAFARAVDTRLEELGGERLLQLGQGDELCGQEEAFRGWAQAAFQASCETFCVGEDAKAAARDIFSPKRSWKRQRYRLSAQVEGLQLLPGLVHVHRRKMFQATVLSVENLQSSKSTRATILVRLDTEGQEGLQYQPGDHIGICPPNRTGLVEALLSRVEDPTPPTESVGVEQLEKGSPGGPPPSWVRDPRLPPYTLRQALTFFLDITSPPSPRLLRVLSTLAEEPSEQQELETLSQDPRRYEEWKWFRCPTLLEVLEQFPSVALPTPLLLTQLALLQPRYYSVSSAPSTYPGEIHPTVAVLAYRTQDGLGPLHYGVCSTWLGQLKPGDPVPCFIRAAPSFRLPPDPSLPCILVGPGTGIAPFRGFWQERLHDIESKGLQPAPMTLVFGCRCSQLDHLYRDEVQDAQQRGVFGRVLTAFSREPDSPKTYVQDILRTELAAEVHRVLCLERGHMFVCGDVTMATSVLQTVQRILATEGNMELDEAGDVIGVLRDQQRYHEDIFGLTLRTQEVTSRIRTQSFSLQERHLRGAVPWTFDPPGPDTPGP
Method: NO synthase (NOS) activity in intact cells was determined by monitoring the conversion of L-[^3H]arginine into L-[^3H]citrulline as previously described. […] Subsequent to lysis of the cells with 0.01 M HCl, an aliquot was removed for determination of incorporated radioactivity. To the remaining sample, 200 mM sodium acetate buffer ([…]) containing 10 mM L-citrulline was added (final pH ~5.0), and L-[^3H]citrulline was separated from L-[^3H]arginine by cation exchange chromatography.

[3] = tested on: endothelial cells; test: MTT to formazan conversion (viability); type: cell-based, porcine; conditions: 1 mM, 60 minutes
Method: The viability of endothelial cells was judged by incubation with 1 mM of the flavoring compounds, followed by determination of 3-(4,5-dimethyl-2-thiazolyl)-2,5-diphenyltetrazolium bromide (MTT) to formazan conversion using the Cayman MTT Cell Proliferation Assay Kit purchased through VWR International (Vienna, Austria).

[4] = Electrochemical determination of NO released from DEA/NO (NO scavenging); conditions: DEA/NO 1 μM
Method: Scavenging of NO by flavoring compounds was studied with a nitric oxide sensor (ISO-NOP, World Precision Instruments, Berlin, Germany), calibrated with acidified nitrite as described previously. Free NO radical was generated by incubation of DEA/NO (1 μM) in 1 ml of 100 mM phosphate buffer, pH 7.4, in the absence or presence of superoxide dismutase (2500 U/ml) at ambient temperature. At the peak concentration of NO, flavoring compounds (10 μl of DSMO stock solutions) were added, DMSO served as vehicle control.

[5] = tested on: rat aortic rings; test: Effect of flavorings on vascular tone of U-46619 precontracted aortic rings; conditions: 95% CI
Method: Unsexed Sprague-Dawley rats (obtained from Charles River, Sulzfeld, Germany) were housed at the local animal facility in approved cages. […] Animals were euthanized in a box that was gradually filled with CO2 until vital signs had ceased (cessation of respiration and circulation). Subsequently, the thorax of the animals was opened, the thoracic aorta was removed, cleaned from connective tissue and immediately used for assessment of vessel function.
After equilibration for 60 min at the optimal resting tension of 20 mN, maximal contractile activity was determined with a depolarizing solution containing 60 mM K^+. […] When contraction had reached a stable plateau (~after 20 min) cumulative concentration-response curves were established with flavorings. Where indicated, the effects of the flavorings on vascular tone were tested in the presence of the NOS inhibitor N^G-nitro-L-arginine methyl ester (L-NAME, 0.2 mM).
Concentration-response curves of different ring segments from a single animal were averaged and counted as an individual experiment.

[6] = Estimated plasma concentration upon inhalation of cinnamaldehyde-containing aerosol; parameters: species or system human; conditions: 10 ml of 6.9 mM liquid, plasma volume 3 liters, 100% bioavailability, no distribution, metabolism or clearance
[7] = tested on: endothelial cells; conditions: pig, 1 h, 1 mM
Method: To test for membrane integrity, endothelial cells were assayed for release of lactate dehydrogenase (LDH) into the culture medium. Subsequent to incubation with flavoring compounds (1 mM each) for 1 hour, 20-μl aliquots of the culture media were mixed with 200 μl of reagent buffer (1 mM pyruvate and 0.1 mM NAD^+ in PBS). The decrease in light absorbance at 340 nm was monitored using a diode array spectrophotometer (Hewlett Packard 8452A). Maximum LDH release was determined by treating the cells with 1% Triton X-100.

[8] = rats, cited from earlier work
[9] = Rattus norvegicus, absence of L-NAME, read-out: EC50 of relaxation of pre-contracted vessels (Control)
[10] = Rattus norvegicus, presence of L-NAME 0.2 mM, read-out: EC50 of relaxation of pre-contracted vessels (L-NAME)

Row | SMILES | DEA/NO-stimulated endothelial cGMP formation ([1]; incubation for 15 minutes (Fig 2B)) | DEA/NO-stimulated endothelial cGMP formation ([1]; incubation for 75 minutes (Fig 2B)) | DEA/NO-induced cGMP formation ([1]; flavoring 1 mM, 15 min preincubation, 1 μM DEA/NO for 4 min (Fig 1B)) | Concentration inhibiting Ca2+-stimulated NO synthase activation [2] [mM] | Direct effect on NOS-catalyzed L-citrulline formation [2] | Effect on A23187-stimulated L-citrulline formation (endothelial NOS activity) ([2]; 0.3 and 1.0 mM (Fig 2A)) | Formazan formation (% of control) [3] | Effect on recorded NO signal (NO scavenging) ([4]; 1 mM) | Effect on recorded NO signal (NO scavenging) ([4]; 10 mM) | EC50 [5, 9] [µM] | EC50 [5, 10] [µM] | Estimated plasma concentration [6] [µM] | LDH release (% of maximum) [7] | Maximal plasma concentration ([8]; intravenous bolus 25 mg/kg) [µM] | Maximal plasma concentration ([8]; oral 500 mg/kg) | EC50 ([5]; absence of L-NAME, read-out: EC50 of relaxation of pre-contracted vessels (Control)) [µM]
1 | O=C/C=C/c1ccccc1 [Cinnamaldehyde, (2E)-3-Phenylprop-2-enal] | 25.3±3.9 % of controls | 10.4±2.4 % of controls | about 35 % of controls | ≥ 0.3 | neither eugenol nor cinnamaldehyde increased | significantly inhibited | 91±2.6 % of control | only moderate effects | pronounced decrease | ~500 | 600 | 23 | 1.8±0.50 % of maximum | 20 | about 2 μM | –
2 | C=CCc1ccc(O)c(OC)c1 [Eugenol, 2-Methoxy-4-(prop-2-en-1-yl)phenol] | – | – | – | – | neither eugenol nor cinnamaldehyde increased | – | 107±4.6 % of control | – | – | ~500 | 500 | – | – | – | – | 400
